This passage reports GI50 and TGI results from PubChem BioAssay (NCI).

SMILES strings stand for the structures.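 Briefly, cells in 96-well plates were exposed to five compound concentrations for 48 h, and endpoints were estimated by linear interpolation. Abbreviation: GI50, concentration required for 50% inhibition of growth. TGI is the concentration that stops growth completely.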

Test systems include MCF7 breast; T-47D breast; SK-MEL-2 melanoma; HS 578T breast; SNB-75 CNS; CCRF-CEM leukemia; HCT-15 colon; SNB-19 CNS; A549 NSCLC; SW-620 colon.
Common to all, as to experiment: growth of human tumour cells (NCI), 48 h

Consider `CCOC(=O)c1ccc(C(O)CC(=O)OC(C)(C)C)[nH]1` (centres undefined), for which the GI50 is 10400 nM in the test with MCF7 breast; 38400 nM with T-47D breast; 21.3 µM in the test with SK-MEL-2 melanoma; 48.3 µM in the test with HS 578T breast; 37200 nM with SNB-75 CNS; 29.6 µM with CCRF-CEM leukemia. For the same molecule, the GI50 was 34400 nM in the test on HCT-15 colon, 42.9 µM in the test with SNB-19 CNS, 32100 nM with A549 NSCLC and 50.1 µM in the test with SW-620 colon. Also, the TGI in the test on MCF7 breast is 30 µM; in the test on T-47D breast, above 100 µM; with SK-MEL-2 melanoma it was 41.3 µM; with HS 578T breast it was above 100 µM; in the test with SNB-75 CNS it was above 100 µM; in the test with CCRF-CEM leukemia it was 88 µM. Also, the TGI in the test with HCT-15 colon, in the test on SNB-19 CNS, in the test with A549 NSCLC and in the test with SW-620 colon was above 100 µM in each case.

For `N#C/C(=C\c1ccc(Cl)cc1)n1nnc2cc(F)c(F)cc21`, the GI50 in the test on MCF7 breast was 1530 nM; in the test with T-47D breast, 1310 nM; with SK-MEL-2 melanoma it was 2.03 µM; in the test with HS 578T breast, 2.76 µM; in the test with SNB-75 CNS it was 1510 nM; in the test on CCRF-CEM leukemia it was 2.01 µM. Besides, the GI50 with HCT-15 colon was 1420 nM; in the test on SNB-19 CNS, 1.82 µM; in the test with A549 NSCLC, 2700 nM; with SW-620 colon, 1.72 µM. Besides, the TGI is 4.49 µM in the test on MCF7 breast; 4.72 µM with T-47D breast; 4.83 µM with SK-MEL-2 melanoma; 8.49 µM in the test with HS 578T breast; 3.01 µM in the test on SNB-75 CNS; above 100 µM in the test with CCRF-CEM leukemia. For the same molecule, the TGI with HCT-15 colon was found to be 3.55 µM; in the test with SNB-19 CNS, 3.78 µM; with A549 NSCLC, 21.5 µM; in the test on SW-620 colon, 3.46 µM.

Regarding `CNC(=O)c1ccc(Nc2nc(OC3CCCC3)c3c(-c4ccc5nc(C)oc5c4)c[nH]c3n2)c(OC)c1`, the GI50 in the test with MCF7 breast was 252 nM; in the test with T-47D breast, 907 nM; in the test with SK-MEL-2 melanoma, above 51.3 µM; in the test on HS 578T breast it was 31.5 µM; in the test on SNB-75 CNS, 474 nM; in the test with CCRF-CEM leukemia, 0.124 µM. The GI50 with HCT-15 colon is 68.9 nM; in the test on SNB-19 CNS, 10 µM; in the test on A549 NSCLC it was 201 nM; in the test with SW-620 colon it was 0.121 µM. Further, the TGI with MCF7 breast was above 100 µM; in the test on T-47D breast, above 100 µM; with SK-MEL-2 melanoma, above 100 µM; with HS 578T breast, above 100 µM; in the test with SNB-75 CNS, above 100 µM; with CCRF-CEM leukemia, above 44.4 µM. Besides, the TGI with HCT-15 colon, in the test on SNB-19 CNS, in the test with A549 NSCLC and with SW-620 colon was above 100 µM in each case.

In the case of `C[C@]12CC[C@H]3[C@@H](CC=C4C[C@@H](O)CC[C@@]43C)[C@@H]1C/C(=C\c1cccc(OCCCn3ccnc3)c1)[C@@H]2O`, the GI50 in the test on MCF7 breast was 14500 nM; in the test with T-47D breast, 6400 nM; in the test on SK-MEL-2 melanoma, 17.4 µM; in the test with HS 578T breast, 5.16 µM; in the test on SNB-75 CNS it was 14100 nM; in the test on CCRF-CEM leukemia, 13 µM. In addition, the GI50 is 10200 nM with HCT-15 colon, 17.1 µM in the test with SNB-19 CNS, 12900 nM in the test on A549 NSCLC and 10.6 µM with SW-620 colon. Also, the TGI with MCF7 breast worked out at 34.2 µM; in the test with T-47D breast, 30.1 µM; with SK-MEL-2 melanoma, 33.6 µM; in the test on HS 578T breast, 23.4 µM; with SNB-75 CNS it was 28.8 µM; with CCRF-CEM leukemia, 68.7 µM. Moreover, the TGI was 38.9 µM in the test on HCT-15 colon, 37.6 µM with SNB-19 CNS, 28.5 µM in the test on A549 NSCLC and 26.8 µM in the test with SW-620 colon.

For the molecule `COc1cc2c(cc1OCCCCCN1CCN(c3cc(=O)oc4c(C)c(OC)ccc34)CC1)N=C[C@@H]1CCCN1C2=O`, the GI50 with MCF7 breast is below 10 nM; in the test on T-47D breast, below 17.4 nM; in the test with SK-MEL-2 melanoma, below 0.01 µM; in the test on HS 578T breast it was below 0.0198 µM; in the test on SNB-75 CNS, below 15.5 nM; in the test with CCRF-CEM leukemia, below 0.01 µM. For the same molecule, the GI50 was 552 nM in the test with HCT-15 colon, below 0.0143 µM in the test on SNB-19 CNS, 21.1 nM in the test with A549 NSCLC and below 0.0108 µM with SW-620 colon. Also, the TGI in the test on MCF7 breast was 3.43 µM; with SK-MEL-2 melanoma it was below 0.0175 µM; in the test on HS 578T breast, 0.791 µM; with SNB-75 CNS it was below 0.0281 µM; in the test with CCRF-CEM leukemia it was 0.106 µM; in the test with HCT-15 colon it was 4.42 µM. The TGI was determined as 8.82 µM in the test with SNB-19 CNS, 15.4 µM in the test with A549 NSCLC and 4.26 µM with SW-620 colon.

Turning to `O=C(CSc1nc2sc3c(c2c(=O)n1-c1ccccc1)CCCCC3)N/N=C/c1ccc(F)cc1`, the GI50 with MCF7 breast is 2910 nM; in the test on T-47D breast, 2340 nM; in the test on SK-MEL-2 melanoma it was 14.4 µM; in the test with HS 578T breast, 1.01 µM; in the test on SNB-75 CNS, 1850 nM; in the test on CCRF-CEM leukemia, 3.16 µM. In addition, the GI50 with HCT-15 colon is 3770 nM; in the test on SNB-19 CNS it was 3.45 µM; with A549 NSCLC, 2480 nM; with SW-620 colon it was 3.14 µM. Further, the TGI in the test with MCF7 breast was 21 µM; with T-47D breast it was 24.6 µM; in the test with SK-MEL-2 melanoma, 28.8 µM; with HS 578T breast, 4.96 µM; with SNB-75 CNS, 4.93 µM; in the test on CCRF-CEM leukemia, above 100 µM. Besides, the TGI is above 100 µM in the test on HCT-15 colon, 13.2 µM in the test on SNB-19 CNS, 10.8 µM with A549 NSCLC and 33.6 µM in the test on SW-620 colon.

On to `Nc1nc(F)nc2c1ncn2C1OC(COP(=O)(O)O)C(O)C1O` (centres undefined), for which the TGI in the test with MCF7 breast worked out at 717 µM; in the test on T-47D breast, 489 µM; in the test with SK-MEL-2 melanoma, 151 µM; with HS 578T breast, 379 µM; in the test with SNB-75 CNS, 713 µM; in the test with CCRF-CEM leukemia, 202 µM. Further, the TGI was found to be 1080 µM in the test with HCT-15 colon, 1000 µM with SNB-19 CNS, 511 µM with A549 NSCLC and 675 µM in the test with SW-620 colon.

`O=C1C=CC(=O)N1c1ccc2c(c1)Cc1cc(NC(=O)C(F)(F)F)ccc1-2`: the TGI in the test on MCF7 breast was found to be 34.4 µM; with T-47D breast, 53.2 µM; with SK-MEL-2 melanoma, 34.2 µM; with HS 578T breast, 51.9 µM; in the test on SNB-75 CNS, 31.3 µM; in the test on CCRF-CEM leukemia it was 16.9 µM. The TGI in the test with HCT-15 colon was 26.9 µM; in the test on SNB-19 CNS it was above 65.5 µM; in the test with A549 NSCLC it was 34.5 µM; in the test on SW-620 colon it was 25.8 µM.

Consider `C[C@]12CC[C@@H]3c4ccc(OCC(=O)O)cc4CC[C@H]3[C@@H]1CCC2=O`, for which the TGI with MCF7 breast is above 100 µM; with T-47D breast it was above 100 µM; in the test on SK-MEL-2 melanoma, above 100 µM; in the test on HS 578T breast it was above 100 µM; in the test with SNB-75 CNS, above 100 µM; in the test on CCRF-CEM leukemia it was 4.48 µM. Further, the TGI with HCT-15 colon, in the test on SNB-19 CNS, in the test on A549 NSCLC and in the test with SW-620 colon was above 100 µM each time.
